Test results as given in patent US4093648A, “Therapeutically active benzoic acid derivatives and a process for preparing them” (Recordati S.A. Chemical and Pharmaceutical Company, priority 1975, dated 1978).

How the values were obtained:
[1] = test system: cutaneous passive anaphylaxis; experiment: cutaneous passive anaphylaxis on the rat (antianaphylactic activity vs. sodium chromoglycate standard); format: in vivo; settings: for Compound activity / Standard activity: ratio to chromoglycate (standard), cutaneous passive anaphylaxis, rat
Excerpt: The compounds of formula I and their pharmacologically compatible salts show antianaphylactic activity (which is rather remarkable for some of them) that may be successfully employed to prepare pharmaceutical formulations for human use against the allergic asthma and alimentary allergies. In order to evaluate the antianaphylactic activity, we have performed some comparison tests with sodium chromoglycate that is, at the present time, the most known and the most used antiallergic agent.
(§1) The evaluation of biological data has been carried out by the most accepted test of the cutaneous passive anaphylaxis on the rat. We have followed the method described by J. Mota on Life Science 12,917 (1963) that was appropriately modified. The LD50 determination was carried out with the common method, by administering intraperitoneally the compound to rats. The chromoglycate was used as a standard. In the first column, are listed the LD50 values (mg/Kg), in the second the ratios [formula] in the last column the ratios [formula]

[2] = LD50 determination, intraperitoneal, rats; settings: rat, in vivo, ip
Experimental: as §1

[3] = test system: cutaneous passive anaphylaxis; settings: qualitative statement, no data; cited from earlier work

Row | SMILES | Compound activity / Standard activity [1] | LD50 ([2]; intraperitoneally to rats) | antianaphylactic activity ([1]; qualitative statement) | LD50 [2] | activity when administered per os (chromoglycate) [3]
1 | CCOc1ccc(NC(=O)c2cccc(C(=O)CC)c2O)cc1 [Example 2, 2-Hydroxy-3-propionyl (4-ethoxyphenyl)benzamide] | 1.20 | 3000 mg/kg | – | – | –
2 | CCC(=O)c1cccc(C(=O)Nc2ccccc2Cl)c1O [Example 3, 2-Hydroxy-3-propionyl (o-chlorophenyl) benzamide] | 1.19 | 3000 mg/kg | – | – | –
3 | CCC(=O)c1cccc(C(=O)Nc2cccc(Cl)c2)c1O [Example 4, 2-Hydroxy-3-propionyl (m-chlorophenyl) benzamide] | 1.12 | 2700 mg/kg | – | – | –
4 | CCC(=O)c1cccc(C(=O)O)c1OCCN(CC)CC [Example 7, 2(β-diethylamino)ethoxy-3-propionylbenzoic Acid] | 1.22 | – | most active product of this series | 3000 mg/kg | –
5 | O=C(O)c1cc(=O)c2c(OCC(O)COc3cccc4oc(C(=O)O)cc(=O)c34)cccc2o1 [chromoglycate, sodium chromoglycate] | – | – | – | – | inactive
